In patent publication US9513294B2, “Megastokes amino-triazolyl-BODIPY compounds and applications to live neuron staining and human serum albumin FA1 drug site probing” (National University of Singapore, priority 2012, dated 2016):

Assay: Quantum yield measurements versus Acridine Yellow in EtOH
Format: physicochemical
Conditions: MKCA compound library; quantum yield
Summary of the method: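 Emission areas integrated over 510–700 nm were compared with Acridine Yellow in ethanol (Φ=0.47), all excited at 460 nm. The comparative equation was normalized to excitation-wavelength absorbance and solvent refractive index.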

SMILES | φ (%)
CC1CN(C2=[N+]3C(=C(c4ccc(NC(=O)CCl)cc4)c4ccc(-n5cc(CO)nn5)n4[B-]3(F)F)C=C2)CC(C)O1 (stereo not drawn) [MKCA20-70] | 2.64
CCCC(C)c1cn(-c2ccc3n2[B-](F)(F)[N+]2=C(N4CCc5ccccc5C4)C=CC2=C3c2ccc(NC(=O)CCl)cc2)nn1 (stereo not drawn) [MKCA66-3] | 3.50
O=C(CCl)Nc1ccc(C2=C3C=CC(N4CCc5ccccc5C4)=[N+]3[B-](F)(F)n3c2ccc3-n2cc(C3CC3)nn2)cc1 [MKCA66-4] | 3.33
O=C(CCl)Nc1ccc(C2=C3C=CC(N4CCc5ccccc5C4)=[N+]3[B-](F)(F)n3c2ccc3-n2cc(C3CCCC3)nn2)cc1 [MKCA66-5] | 3.11
O=C(CCl)Nc1ccc(C2=C3C=CC(N4CCc5ccccc5C4)=[N+]3[B-](F)(F)n3c2ccc3-n2cc(CC3CCCCC3)nn2)cc1 [MKCA66-8] | 3.05
CN(Cc1ccccc1)Cc1cn(-c2ccc3n2[B-](F)(F)[N+]2=C(N4CCc5ccccc5C4)C=CC2=C3c2ccc(NC(=O)CCl)cc2)nn1 [MKCA66-18] | 2.33
CCCc1cn(-c2ccc3n2[B-](F)(F)[N+]2=C(N4CCc5ccccc5C4)C=CC2=C3c2ccc(NC(=O)CCl)cc2)nn1 [MKCA66-48] | 3.18
CCCCCC(O)c1cn(-c2ccc3n2[B-](F)(F)[N+]2=C(N4CCc5ccccc5C4)C=CC2=C3c2ccc(NC(=O)CCl)cc2)nn1 (stereo not drawn) [MKCA66-69] | 3.38
O=C(CCl)Nc1ccc(C2=C3C=CC(N4CCc5ccccc5C4)=[N+]3[B-](F)(F)n3c2ccc3-n2cc(CO)nn2)cc1 [MKCA66-70] | 2.61
Cc1ccccc1CNC1=[N+]2C(=C(c3ccc(NC(=O)CCl)cc3)c3ccc(-n4cc(C5CC5)nn4)n3[B-]2(F)F)C=C1 [MKCA101-4] | 34.56
Cc1ccccc1CNC1=[N+]2C(=C(c3ccc(NC(=O)CCl)cc3)c3ccc(-n4cc(C5CCCC5)nn4)n3[B-]2(F)F)C=C1 [MKCA101-5] | 31.53
Cc1ccccc1CNC1=[N+]2C(=C(c3ccc(NC(=O)CCl)cc3)c3ccc(-n4cc(CC5CCCCC5)nn4)n3[B-]2(F)F)C=C1 [MKCA101-8] | 30.95
Cc1ccccc1CNC1=[N+]2C(=C(c3ccc(NC(=O)CCl)cc3)c3ccc(-n4cc(CN(C)Cc5ccccc5)nn4)n3[B-]2(F)F)C=C1 [MKCA101-18] | 21.53
Cc1ccccc1CNC1=[N+]2C(=C(c3ccc(NC(=O)CCl)cc3)c3ccc(-n4cc(CCc5ccccc5)nn4)n3[B-]2(F)F)C=C1 [MKCA101-19] | 33.37
Cc1ccccc1CNC1=[N+]2C(=C(c3ccc(NC(=O)CCl)cc3)c3ccc(-n4cc(CC(C)C)nn4)n3[B-]2(F)F)C=C1 [MKCA101-43] | 29.92

Assay: Absorbance and fluorescence emission spectra (SpectraMax M2)
Format: physicochemical
Conditions: MKCA compound library; absorbance maximum
Summary of the method: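 Spectroscopic data, including quantum yields, were recorded with a SpectraMax M2 instrument and analysed in GraphPrism.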

SMILES | λmax Absorp. (nm)
CC1CN(C2=[N+]3C(=C(c4ccc(NC(=O)CCl)cc4)c4ccc(-n5cc(CO)nn5)n4[B-]3(F)F)C=C2)CC(C)O1 (stereo not drawn) [MKCA20-70] | 469
CCCC(C)c1cn(-c2ccc3n2[B-](F)(F)[N+]2=C(N4CCc5ccccc5C4)C=CC2=C3c2ccc(NC(=O)CCl)cc2)nn1 (stereo not drawn) [MKCA66-3] | 469
O=C(CCl)Nc1ccc(C2=C3C=CC(N4CCc5ccccc5C4)=[N+]3[B-](F)(F)n3c2ccc3-n2cc(C3CC3)nn2)cc1 [MKCA66-4] | 469
O=C(CCl)Nc1ccc(C2=C3C=CC(N4CCc5ccccc5C4)=[N+]3[B-](F)(F)n3c2ccc3-n2cc(C3CCCC3)nn2)cc1 [MKCA66-5] | 470
O=C(CCl)Nc1ccc(C2=C3C=CC(N4CCc5ccccc5C4)=[N+]3[B-](F)(F)n3c2ccc3-n2cc(CC3CCCCC3)nn2)cc1 [MKCA66-8] | 469
CN(Cc1ccccc1)Cc1cn(-c2ccc3n2[B-](F)(F)[N+]2=C(N4CCc5ccccc5C4)C=CC2=C3c2ccc(NC(=O)CCl)cc2)nn1 [MKCA66-18] | 466
CCCc1cn(-c2ccc3n2[B-](F)(F)[N+]2=C(N4CCc5ccccc5C4)C=CC2=C3c2ccc(NC(=O)CCl)cc2)nn1 [MKCA66-48] | 469
CCCCCC(O)c1cn(-c2ccc3n2[B-](F)(F)[N+]2=C(N4CCc5ccccc5C4)C=CC2=C3c2ccc(NC(=O)CCl)cc2)nn1 (stereo not drawn) [MKCA66-69] | 469
O=C(CCl)Nc1ccc(C2=C3C=CC(N4CCc5ccccc5C4)=[N+]3[B-](F)(F)n3c2ccc3-n2cc(CO)nn2)cc1 [MKCA66-70] | 468
Cc1ccccc1CNC1=[N+]2C(=C(c3ccc(NC(=O)CCl)cc3)c3ccc(-n4cc(C5CC5)nn4)n3[B-]2(F)F)C=C1 [MKCA101-4] | 464
Cc1ccccc1CNC1=[N+]2C(=C(c3ccc(NC(=O)CCl)cc3)c3ccc(-n4cc(C5CCCC5)nn4)n3[B-]2(F)F)C=C1 [MKCA101-5] | 466
Cc1ccccc1CNC1=[N+]2C(=C(c3ccc(NC(=O)CCl)cc3)c3ccc(-n4cc(CC5CCCCC5)nn4)n3[B-]2(F)F)C=C1 [MKCA101-8] | 464
Cc1ccccc1CNC1=[N+]2C(=C(c3ccc(NC(=O)CCl)cc3)c3ccc(-n4cc(CN(C)Cc5ccccc5)nn4)n3[B-]2(F)F)C=C1 [MKCA101-18] | 462
Cc1ccccc1CNC1=[N+]2C(=C(c3ccc(NC(=O)CCl)cc3)c3ccc(-n4cc(CCc5ccccc5)nn4)n3[B-]2(F)F)C=C1 [MKCA101-19] | 463
Cc1ccccc1CNC1=[N+]2C(=C(c3ccc(NC(=O)CCl)cc3)c3ccc(-n4cc(CC(C)C)nn4)n3[B-]2(F)F)C=C1 [MKCA101-43] | 466

Same assay, conditions: MKCA compound library; fluorescence emission maximum

SMILES | λmax Emission (nm)
CC1CN(C2=[N+]3C(=C(c4ccc(NC(=O)CCl)cc4)c4ccc(-n5cc(CO)nn5)n4[B-]3(F)F)C=C2)CC(C)O1 (stereo not drawn) [MKCA20-70] | 587
CCCC(C)c1cn(-c2ccc3n2[B-](F)(F)[N+]2=C(N4CCc5ccccc5C4)C=CC2=C3c2ccc(NC(=O)CCl)cc2)nn1 (stereo not drawn) [MKCA66-3] | 582
O=C(CCl)Nc1ccc(C2=C3C=CC(N4CCc5ccccc5C4)=[N+]3[B-](F)(F)n3c2ccc3-n2cc(C3CC3)nn2)cc1 [MKCA66-4] | 587
O=C(CCl)Nc1ccc(C2=C3C=CC(N4CCc5ccccc5C4)=[N+]3[B-](F)(F)n3c2ccc3-n2cc(C3CCCC3)nn2)cc1 [MKCA66-5] | 587
O=C(CCl)Nc1ccc(C2=C3C=CC(N4CCc5ccccc5C4)=[N+]3[B-](F)(F)n3c2ccc3-n2cc(CC3CCCCC3)nn2)cc1 [MKCA66-8] | 582
CN(Cc1ccccc1)Cc1cn(-c2ccc3n2[B-](F)(F)[N+]2=C(N4CCc5ccccc5C4)C=CC2=C3c2ccc(NC(=O)CCl)cc2)nn1 [MKCA66-18] | 585
CCCc1cn(-c2ccc3n2[B-](F)(F)[N+]2=C(N4CCc5ccccc5C4)C=CC2=C3c2ccc(NC(=O)CCl)cc2)nn1 [MKCA66-48] | 584
CCCCCC(O)c1cn(-c2ccc3n2[B-](F)(F)[N+]2=C(N4CCc5ccccc5C4)C=CC2=C3c2ccc(NC(=O)CCl)cc2)nn1 (stereo not drawn) [MKCA66-69] | 586
O=C(CCl)Nc1ccc(C2=C3C=CC(N4CCc5ccccc5C4)=[N+]3[B-](F)(F)n3c2ccc3-n2cc(CO)nn2)cc1 [MKCA66-70] | 581
Cc1ccccc1CNC1=[N+]2C(=C(c3ccc(NC(=O)CCl)cc3)c3ccc(-n4cc(C5CC5)nn4)n3[B-]2(F)F)C=C1 [MKCA101-4] | 565
Cc1ccccc1CNC1=[N+]2C(=C(c3ccc(NC(=O)CCl)cc3)c3ccc(-n4cc(C5CCCC5)nn4)n3[B-]2(F)F)C=C1 [MKCA101-5] | 563
Cc1ccccc1CNC1=[N+]2C(=C(c3ccc(NC(=O)CCl)cc3)c3ccc(-n4cc(CC5CCCCC5)nn4)n3[B-]2(F)F)C=C1 [MKCA101-8] | 562
Cc1ccccc1CNC1=[N+]2C(=C(c3ccc(NC(=O)CCl)cc3)c3ccc(-n4cc(CN(C)Cc5ccccc5)nn4)n3[B-]2(F)F)C=C1 [MKCA101-18] | 562
Cc1ccccc1CNC1=[N+]2C(=C(c3ccc(NC(=O)CCl)cc3)c3ccc(-n4cc(CCc5ccccc5)nn4)n3[B-]2(F)F)C=C1 [MKCA101-19] | 562
Cc1ccccc1CNC1=[N+]2C(=C(c3ccc(NC(=O)CCl)cc3)c3ccc(-n4cc(CC(C)C)nn4)n3[B-]2(F)F)C=C1 [MKCA101-43] | 562
